Tests used:
Assay in all cases: Bliss excess, mean over the matrix (fraction); higher = more synergy
[1] = test system: EFO-21 (Ovarian Carcinoma)
Procedure, shortened: (§1)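 After 24 hours at 37°C and 5% CO2 in 1536-well plates, cells in DMEM/F12 or RPMI plus 10% FBS received two-drug dose matrices for 72 hours. Viability came from CellTiter-Glo 2.0 luminescence and was scaled as inhibition, anchored at 0 by vehicle wells and at 1 by blank wells. Combination Emax is taken as the second-highest inhibition in the matrix, and Bliss excess as the observed combination effect less EA + EB − EA·EB, with EA and EB the single-agent effects.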

[2] = test system: HAL-01 (B-Lymphoblastic Leukemia)
Procedure, shortened: as §1

[3] = test system: MOG-G-UVW (Low Grade Glioma)
Procedure, shortened: as §1

[4] = test system: KGN (Other Solid Carcinomas)
Procedure, shortened: as §1

[5] = test system: ML-2 (Acute Myeloid Leukemia)
Procedure, shortened: as §1

[6] = test system: SW982 (Other Solid Carcinomas)
Procedure, shortened: as §1

[7] = test system: SK-N-AS (Neuroblastoma)
Procedure, shortened: as §1

[8] = test system: MDA-MB-453 (Breast Carcinoma)
Procedure, shortened: as §1

[9] = test system: COLO-679 (Melanoma)
Procedure, shortened: as §1

[10] = test system: Mo-T (Other Blood Carcinomas)
Procedure, shortened: as §1

[11] = test system: NCI-H1993 (Lung Adenocarcinoma)
Procedure, shortened: as §1

| Structure (SMILES) | Bliss excess [1] | Bliss excess [2] | Bliss excess [3] | Bliss excess [4] | Bliss excess [5] | Bliss excess [6] | Bliss excess [7] | Bliss excess [8] | Bliss excess [9] | Bliss excess [10] | Bliss excess [11] |
| --- | --- | --- | --- | --- | --- | --- | --- | --- | --- | --- | --- |
| Cc1c2c(nn1C)CSCc1cc(n(C)n1)CSc1cc(c3ccccc3c1)OCCCc1c(C(=O)O)n(C)c3c-2c(Cl)ccc13 [AZD5991] + CS(=O)(=O)CCNCc1ccc(-c2ccc3ncnc(Nc4ccc(OCc5cccc(F)c5)c(Cl)c4)c3c2)o1 [Lapatinib] (first compound max 1 µM, 7x7, partner max 10 µM) | 0.0347 | 0.162 | -0.0158 | -0.0049 | 0.0008 | -0.0151 | -0.0363 | 0.0116 | -0.149 | -0.0344 | – |
| O=C(c1cc(Cc2n[nH]c(=O)c3ccccc23)ccc1F)N1CCN(C(=O)C2CC2)CC1 [Olaparib] + CC1(C)CCC(CN2CCN(c3ccc(C(=O)NS(=O)(=O)c4ccc(NCC5CCOCC5)c([N+](=O)[O-])c4)c(Oc4cnc5[nH]ccc5c4)c3)CC2)=C(c2ccc(Cl)cc2)C1 [Venetoclax] (first compound max 10 µM, 7x7, partner max 1 µM) | -0.0495 | 0.122 | 0.001 | -0.0145 | 0.115 | -0.0429 | -0.031 | -0.0323 | -0.0643 | -0.0336 | -0.0397 |
| O=C(c1cc(Cc2n[nH]c(=O)c3ccccc23)ccc1F)N1CCN(C(=O)C2CC2)CC1 [Olaparib] + COc1nnc2ccc(N3CCC(c4ccc(OCCN5CCN(C)C(=O)[C@H]5C)cc4)CC3)nn12 [AZD5153] (first compound max 10 µM, 7x7, partner max 1 µM) | -0.0719 | 0.007 | -0.0406 | 0.018 | -0.0153 | -0.0614 | -0.0662 | -0.0483 | -0.0654 | -0.0413 | -0.0529 |
| C[C@@H](Nc1cc(F)cc(F)c1)c1cc(C(=O)N(C)C)cc2c(=O)cc(N3CCOCC3)oc12 [AZD8186] + CC(=O)c1c(C)c2cnc(Nc3ccc(N4CCNCC4)cn3)nc2n(C2CCCC2)c1=O [Palbociclib] (first compound max 10 µM, 7x7, partner max 10 µM) | -0.0175 | -0.0022 | 0.11 | 0.0548 | 0.103 | 0.0551 | 0.0334 | 0.0491 | -0.0735 | -0.0319 | 0.0847 |
| C[C@@H](Oc1cc(-c2cnn(C3CCNCC3)c2)cnc1N)c1c(Cl)ccc(F)c1Cl [Crizotinib] + Cn1cnc2c(F)c(Nc3ccc(Br)cc3Cl)c(C(=O)NOCCO)cc21 [Selumetinib] (first compound max 10 µM, 7x7, partner max 10 µM) | -0.0233 | -0.0267 | 0.104 | -0.086 | -0.0083 | 0.0165 | -0.0118 | -0.0374 | -0.0369 | -0.047 | 0.0034 |
| CN(CCO)CC[C@H](CSc1ccccc1)Nc1ccc(S(=O)(=O)NC(=O)c2ccc(N3CCC([C@@H](O)c4ccccc4-c4ccc(Cl)cc4)CC3)cc2)cc1S(=O)(=O)C(F)(F)F [AZD4320] + CS(=O)(=O)CCNCc1ccc(-c2ccc3ncnc(Nc4ccc(OCc5cccc(F)c5)c(Cl)c4)c3c2)o1 [Lapatinib] (first compound max 1 µM, 7x7, partner max 10 µM) | -0.0104 | 0.193 | 0.0193 | -0.0448 | 0.0678 | 0.0799 | -0.0397 | -0.0554 | -0.106 | 0.0485 | 0.0682 |
| Cc1nc(-c2cn3c(n2)-c2ccc(-c4cnn(C(C)(C)C(N)=O)c4)cc2OCC3)n(C(C)C)n1 [Taselisib] + O=C(Nc1ccc2[nH]nc(-c3ccncc3)c2c1)[C@@H]1CCN(CC(=O)N2CCN(c3ccc(-c4ncccn4)cc3)CC2)C1 [SCH772984] (first compound max 10 µM, 7x7, partner max 5 µM) | 0.0446 | -0.0711 | 0.0333 | 0.0378 | 0.101 | -0.0167 | 0.0187 | 0.0207 | -0.0148 | 0.0526 | 0.111 |
| C=CCn1c(=O)c2cnc(Nc3ccc(N4CCN(C)CC4)cc3)nc2n1-c1cccc(C(C)(C)O)n1 [AZD1775] + CCc1c2c(nc3ccc(O)cc13)-c1cc3c(c(=O)n1C2)COC(=O)[C@]3(O)CC [SN-38] (first compound max 1 µM, partner max 0.3 µM) | -0.0193 | -0.0249 | 0.0228 | -0.114 | -0.0033 | -0.0158 | 0.0032 | -0.0113 | -0.171 | -0.0799 | 0.0354 |
| CC1(C)CCC(CN2CCN(c3ccc(C(=O)NS(=O)(=O)c4ccc(NCC5CCOCC5)c([N+](=O)[O-])c4)c(Oc4cnc5[nH]ccc5c4)c3)CC2)=C(c2ccc(Cl)cc2)C1 [Venetoclax] + CS(=O)(=O)CCNCc1ccc(-c2ccc3ncnc(Nc4ccc(OCc5cccc(F)c5)c(Cl)c4)c3c2)o1 [Lapatinib] (first compound max 1 µM, 7x7, partner max 10 µM) | -0.0323 | 0.102 | -0.0012 | -0.0609 | 0.146 | -0.0456 | -0.0432 | -0.0106 | -0.0634 | -0.0092 | -0.0311 |
| CS(=O)(=O)CCNCc1ccc(-c2ccc3ncnc(Nc4ccc(OCc5cccc(F)c5)c(Cl)c4)c3c2)o1 [Lapatinib] + Cn1cnc2c(F)c(Nc3ccc(Br)cc3Cl)c(C(=O)NOCCO)cc21 [Selumetinib] (first compound max 10 µM, 7x7, partner max 10 µM) | 0.0118 | 0.0997 | 0.024 | 0.0232 | -0.151 | 0.034 | 0.0034 | -0.0421 | -0.116 | -0.0542 | 0.0118 |
